The values below come from publication PMC9604439, “Mutation Hotspot for Changing the Substrate Specificity of β-N-Acetylhexosaminidase: A Library of GlcNAcases” (International Journal of Molecular Sciences, 2022).

Bounds are passed on as bounds.

Assay [1] concerns the target T1, TfHex (β-N-acetylhexosaminidase from Talaromyces flavus) (Talaromyces flavus, UniProt G5DAA0, E332H).
T1 construct: secreted via alpha-factor, pPICZαA, Pichia pastoris KM71H, cation-exchange purified; tetramer of two catalytic subunits and two non-covalently linked propeptides
As to the kind of experiment: discontinuous p-nitrophenolate release assay, non-linear regression. In kind it is biochemical. The conditions noted are these: McIlvaine buffer pH 5.0, 25 °C; not measured to full saturation.

Assay [2] has as its target T2, TfHex (β-N-acetylhexosaminidase from Talaromyces flavus) (Talaromyces flavus, UniProt G5DAA0, E332K).
T2 construct: secreted via alpha-factor, pPICZαA, Pichia pastoris KM71H, cation-exchange purified; tetramer of two catalytic subunits and two non-covalently linked propeptides
The assay is described as above. The conditions noted are these: McIlvaine buffer pH 5.0, 25 °C; not measured to full saturation, estimate only. The assay is classed as biochemical. The source says: discontinuous p-nitrophenolate release assay, non-linear regression on TfHex (β-N-acetylhexosaminidase from Talaromyces flavus) | for Glu332Lys TfHex, only estimates of kinetic parameters are presented

T1 sequence (G5DAA0 entry or part of it E332H): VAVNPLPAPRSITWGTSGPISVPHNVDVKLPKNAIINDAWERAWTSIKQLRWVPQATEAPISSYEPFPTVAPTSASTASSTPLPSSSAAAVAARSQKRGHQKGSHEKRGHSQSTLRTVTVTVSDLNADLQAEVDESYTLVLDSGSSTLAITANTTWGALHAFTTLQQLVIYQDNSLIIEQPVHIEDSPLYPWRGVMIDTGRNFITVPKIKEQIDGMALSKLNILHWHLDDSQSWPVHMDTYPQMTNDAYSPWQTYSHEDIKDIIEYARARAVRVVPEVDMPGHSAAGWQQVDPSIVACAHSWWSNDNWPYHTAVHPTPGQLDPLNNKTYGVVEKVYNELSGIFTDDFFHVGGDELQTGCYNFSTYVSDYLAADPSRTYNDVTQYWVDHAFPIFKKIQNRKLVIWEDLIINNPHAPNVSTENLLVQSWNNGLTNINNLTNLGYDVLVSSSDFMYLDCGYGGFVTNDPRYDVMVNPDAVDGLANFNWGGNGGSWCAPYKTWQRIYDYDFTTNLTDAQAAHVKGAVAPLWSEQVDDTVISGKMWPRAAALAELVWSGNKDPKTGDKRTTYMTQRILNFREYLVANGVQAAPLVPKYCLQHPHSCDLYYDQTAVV
T2 sequence (G5DAA0 entry or part of it E332K): as the sequence (G5DAA0 entry or part of it E332H) above, with H315K counted along it

On to `CC(=O)N[C@H]1[C@H](Oc2ccc([N+](=O)[O-])cc2)O[C@H](CO)[C@@H](O)[C@@H]1O` [pNP-GlcNAc, p-Nitrophenyl 2-acetamido-2-deoxy-β-D-glucopyranoside], for which the Km in assay [1] and in assay [2] was over 7 mM in each case.
